Values quoted from earlier work as cited in patent publication US20220211847A1, “COMBINATION OF MONALIZUMAB, DURVALUMAB, CHEMOTHERAPY AND BEVACIZUMAB OR CETUXIMAB FOR THE TREATMENT OF COLORECTAL CANCER” (MEDIMMUNE LIMITED, priority 2019, published 2022).
Read-outs that look alike come from different tables or passages of the source.

Columns and labels:
CRC = settings: similar population
[1] = tested on: unresectable metastatic disease (mCRC); settings: added to oxaliplatin-based regimens
[2] = tested on: microsatellite instability-high CRC or mismatch repair deficient CRC; settings: monotherapy; MSI-high or mismatch repair deficient CRC
[3] = tested on: MSI high CRCs and MSS CRCs

CNC(=O)c1cc(Oc2ccc(NC(=O)Nc3ccc(Cl)c(C(F)(F)F)c3)c(F)c2)ccn1 [regorafenib]
median OS (CRC): 6.4 months

bevacizumab: recombinant humanized monoclonal antibody directed against human vascular endothelial growth factor (VEGF)
increase in Progression-free survival (PFS) compared with regimens without bevacizumab [1]: 1.4 months
difference in Overall Survival (OS) ([1]; not statistically significant): 1.4 months

nivolumab
ORR [2]: 28%

pembrolizumab: humanized monoclonal IgG4 antibody directed against human cell surface receptor PD-1
objective response rate (ORR) ([3]; 10 mg/kg Q2W, microsatellite proficient CRC): 0%
immune-related objective response rate ([3]; MSI high CRCs): 40%
immune-related progression free survival rate ([3]; MSI high CRCs): 78%
patients who experienced disease progression ([3]; MSI-H CRC): 1 of 10
patients who experienced disease progression ([3]; MSS CRC): 11/18
immune-related objective response rate ([3]; MSS CRCs): 0%
immune-related progression free survival rate ([3]; MSS CRCs): 11%
